The source of these data is the NIST ThermoML archive (doi:10.1021/je700186v).

Molecules are shown by their SMILES. Numbers after ± are expanded uncertainties.

The conditions of this data set: Crystal; visual observation.

In the case of `C1CN2CCN1CC2` [1,4-diazabicyclo[2.2.2]octane], the Normal melting temperature worked out at 159.30 ± 1.1 °C.
